Data published in patent publication US6224849A, “Alkylaminobenzothiazole and-benzoxazole derivatives” (Janssen Pharmaceutica N.V., priority 1996, dated 2001).

Molecular target: T1, cloned human D4 receptors (Homo sapiens, UniProt P21917)
T1 construct: purchased Receptor Biology, Maryland, USA; host or cells: transfected Chinese Hamster Ovary (CHO) cells (membrane preparation)
T1 sequence (P21917 1-419): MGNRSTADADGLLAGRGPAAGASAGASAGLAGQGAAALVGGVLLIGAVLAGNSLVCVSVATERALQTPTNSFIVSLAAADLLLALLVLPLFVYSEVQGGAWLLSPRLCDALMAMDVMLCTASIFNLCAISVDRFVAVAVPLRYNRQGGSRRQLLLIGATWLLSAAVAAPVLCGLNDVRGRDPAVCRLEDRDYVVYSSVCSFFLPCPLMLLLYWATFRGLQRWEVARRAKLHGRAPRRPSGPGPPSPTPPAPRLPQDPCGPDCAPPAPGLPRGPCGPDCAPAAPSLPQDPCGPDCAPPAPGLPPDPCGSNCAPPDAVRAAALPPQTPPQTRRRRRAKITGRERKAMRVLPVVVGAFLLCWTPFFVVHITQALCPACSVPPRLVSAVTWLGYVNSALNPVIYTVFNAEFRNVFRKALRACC
Experiment: In vitro radioligand binding affinity for dopamine D4 receptor (3H-spiperone competition, transfected CHO cell membranes)
Conditions: membranes of transfected CHO cells expressing cloned human D4 receptors, read-out: pIC50 (-log IC50), dopamine D4 receptor (converted)
Method: In vitro binding affinity for dopamine D4 receptor
The interaction of the compounds of formula (I) with the dopamine D4 receptors was assessed in in vitro radioligand binding experiments.
A low concentration of ^3 H-spiperone with a high binding affinity for the dopamine D4 receptor was incubated with a sample of a membrane preparation of transfected Chinese Hamster Ovary (CHO) cells which express cloned human D4 receptors (Receptor Biology, Maryland, USA) in a buffered medium. When equilibrium of binding was reached, the receptor bound radioactivity was separated from the non-bound radioactivity, and the receptor bound activity was counted. The interaction of the test compounds, added to the incubation mixture in various concentrations, with the dopamine D4 receptor was assessed in competition binding experiments as described by Schotte et al. (Psychopharmacology, 1996, 124, 57-73).

Row | IC50 | SMILES
1 | ≤ 100 nM | c1ccc(N2CCN(CCNc3nc4ccccc4s3)CC2)cc1 [Compound 6, N-[2-(4-phenyl-1-piperazinyl)ethyl]-2-benzothiazolamine]
2 | ≤ 100 nM | COc1ccc(N2CCN(CCNc3nc4ccccc4s3)CC2)cc1 [Compound 21]
3 | ≤ 100 nM | COc1ccc(N2CCN(CCNc3nc4ccccc4s3)CC2)cc1OC [Compound 23]
4 | ≤ 100 nM | Fc1ccc(N2CCN(CCCNc3nc4ccccc4s3)CC2)cc1 [Compound 25]
5 | ≤ 100 nM | CN(CCCN1CCN(c2ccc(Cl)c(Cl)c2)CC1)c1nc2ccccc2s1 [Compound 100]
6 | ≤ 100 nM | CN(CCN1CCN(c2ccc(Cl)c(Cl)c2)CC1)c1nc2ccccc2s1 [Compound 101]
7 | ≤ 100 nM | Clc1ccc(N2CCN(CCN(Cc3ccccc3)c3nc4ccccc4s3)CC2)cc1Cl [Compound 106]
8 | ≤ 100 nM | c1ccc2c(N3CCN(CCNc4nc5ccccc5s4)CC3)cccc2c1 [Compound 119]
9 | ≤ 100 nM | Clc1ccc(N2CCN(CCNc3nc4ccccc4s3)CC2)cc1 [Compound 134]
